According to article PMC4122130 (Journal of neuroscience research, 2012):

Target: α7 nAChR (Homo sapiens, UniProt P36544)
Test: whole-cell patch clamp, inhibition of […] ACh-evoked currents by […] 4R
Type: cell-based
Details: shsy5y cells

α7 nAChR, sequence (P36544 23-502): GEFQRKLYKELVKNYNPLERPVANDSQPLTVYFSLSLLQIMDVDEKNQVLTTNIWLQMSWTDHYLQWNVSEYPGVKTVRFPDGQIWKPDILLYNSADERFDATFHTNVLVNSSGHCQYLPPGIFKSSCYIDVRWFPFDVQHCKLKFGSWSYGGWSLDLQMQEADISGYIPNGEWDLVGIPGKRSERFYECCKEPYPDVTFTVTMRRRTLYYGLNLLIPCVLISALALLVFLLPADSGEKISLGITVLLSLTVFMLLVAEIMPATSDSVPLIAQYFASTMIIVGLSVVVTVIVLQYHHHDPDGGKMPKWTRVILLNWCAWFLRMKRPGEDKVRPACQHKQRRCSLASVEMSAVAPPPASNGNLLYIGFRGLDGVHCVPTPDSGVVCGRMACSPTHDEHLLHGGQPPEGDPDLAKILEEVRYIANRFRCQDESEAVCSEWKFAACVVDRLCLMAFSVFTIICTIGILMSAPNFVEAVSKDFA

Question: `C/C1=C\[C@H](O)C[C@@](C)(O)/C=C/[C@H](C(C)C)CC/C(C)=C/CC1` [4R, (1S,2E,4R,6R,7E,11E)-cembra-2,7,11-triene-4,6-diol] was tested. Which “% inhibition at 25 μM” value did it give?
Answer: 82% ± 18% inhibition at 25 μM
